Experimental data from patent US20130245006A1, “NOVEL INDOLIZINE DERIVATIVES, AND PREPARATION AND THERAPEUTIC USE THEREOF” (SANOFI, priority 2010, published 2013).
In brackets after ≈: the same amount, converted by molar mass. Counter-ions that a name gives are not always drawn.

Assays:
[1] = Solubility by HPLC relative to a reference sample; format: physicochemical; conditions: aqueous buffer, phosphate buffer, at the pH given
Description: The evaluation of the solubility of the compounds of the invention is carried out at pH 4 (using a phosphate buffer, […]) by HPLC using an H2O/CH3CN/CH3SO3H gradient, relative to a reference sample (a dilute solution of the product to be evaluated which serves as an internal control). The solubility S results are expressed in mg/ml. Generally, the compounds of the present invention have a solubility S≧4 mg/ml at pH≧4. Among them, mention may be made of the solubilities of the following compounds in the table below: […]

SMILES | melting point | solubility [1]
CCc1cc2cc(C(=O)N(CC)Cc3nnn(C)n3)ccn2c1C(=O)c1ccc(CCC(C)(C)NC(C)(C)C)cc1 (as salt: hydrochloride) [Compound No. 18, 3-[4-(3-tert-Butylamino-3-methylbutyl)benzoyl]-2-ethylindolizine-7-carboxylic acid ethyl(2-methyl-2H-tetrazol-5-ylmethyl)amide] | 122 °C | –
CCc1cc2cc(C(=O)N(CC(=O)OC)C(C)C)ccn2c1C(=O)c1ccc(CCC(C)(C)NC2CCCC2)cc1 (as salt: hydrochloride) [Compound No. 19, ({3-[4-(3-Cyclopentylamino-3-methylbutyl)benzoyl]-2-ethylindolizine-7-carbonyl}isopropylamino)acetic acid methyl ester] | 245 °C | –
CCN[C@@H](CCc1ccc(C(=O)c2c(CC)cc3cc(C(=O)N(CC)Cc4nnn(C)n4)ccn23)cc1)C(C)C (as salt: hydrochloride) [Compound No. 20, 2-Ethyl-3-[4-((S)-3-ethylamino-4-methylpentyl)benzoyl]indolizine-7-carboxylic acid ethyl(2-methyl-2H-tetrazol-5-ylmethyl)amide] | 100 °C | –
CCOCCN(CC)C(=O)c1ccn2c(C(=O)c3ccc(CCCNC4CCCC4)cc3)c(CC)cc2c1 [compound 37, 3-[4-(3-Cyclopentylaminopropyl)benzoyl]-2-ethylindolizine-7-carboxylic acid (2-ethoxyethyl)ethylamide] | 146.4 °C | –
CCc1cc2cc(C(=O)N3CCNC(=O)C3)ccn2c1C(=O)c1ccc(CCCNC(C)(C)C)cc1 [compound 38, 4-{3-[4-(3-tert-Butylaminopropyl)benzoyl]-2-ethylindolizine-7-carbonyl}piperazin-2-one] | 122 °C | –
CCN(Cc1nnn(C)n1)C(=O)c1ccn2c(C(=O)c3ccc(CCCNC(C)(C)C)cc3)c(C3CCC3)cc2c1 [compound 42, 3-[4-(3-tert-Butylaminopropyl)benzoyl]-2-cyclobutylindolizine-7-carboxylic acid ethyl(2-methyl-2H-tetrazol-5-ylmethyl)amide] | 195 °C | –
CCc1cc2cc(C(=O)N(CC)Cc3ccn(C)n3)ccn2c1C(=O)c1ccc(CCCNC(C)(C)C)cc1 [compound 44, 3-[4-(3-tert-Butylaminopropyl)benzoyl]-2-ethylindolizine-7-carboxylic acid ethyl(1-methyl-1H-pyrazol-3-ylmethyl)amide] | 149 °C | –
CCc1cc2cc(C(=O)N(CC)Cc3cnn(C)c3)ccn2c1C(=O)c1ccc(CCCNC(C)(C)C)cc1 [compound 45, 3-[4-(3-tert-Butylaminopropyl)benzoyl]-2-ethylindolizine-7-carboxylic acid ethyl(1-methyl-1H-pyrazol-4-ylmethyl)amide] | 173 °C | –
CCc1cc2cc(C(=O)N(CC)Cc3cc(C)on3)ccn2c1C(=O)c1ccc(CCCNC(C)(C)C)cc1 [compound 46, 3-[4-(3-tert-Butylaminopropyl)benzoyl]-2-ethylindolizine-7-carboxylic acid ethyl(5-methylisoxazol-3-ylmethyl)amide] | 175 °C | 1730 µg/mL (≈ 3.27 mM)
CCc1cc2cc(C(=O)OCc3nnn(C)n3)ccn2c1C(=O)c1ccc(CCCNC(C)(C)C)cc1 [compound 49, 3-[4-(3-tert-Butylaminopropyl)benzoyl]-2-ethylindolizine-7-carboxylic acid 2-methyl-2H-tetrazol-5-ylmethyl ester] | 203 °C | –
CCc1cc2cc(C(=O)O[C@H]3CNC(=O)C3)ccn2c1C(=O)c1ccc(CCCNC(C)(C)C)cc1 [compound 52, 3-[4-(3-tert-Butylaminopropyl)benzoyl]-2-ethylindolizine-7-carboxylic acid (R)-5-oxopyrrolidin-3-yl ester] | 162 °C | –
CCc1cc2cc(C(=O)N3CCNC(=O)CC3)ccn2c1C(=O)c1ccc(CCCNC2CCCC2)cc1 [compound 53, 1-{3-[4-(3-Cyclopentylaminopropyl)benzoyl]-2-ethylindolizine-7-carbonyl}[1,4]diazepam-5-one] | 176 °C | 6930 µg/mL (≈ 13.5 mM)
CCCCc1cc2cc(C(=O)N(CC)CC)ccn2c1C(=O)c1ccc(C2CCNCC2)cc1 [compound 66, 2-Butyl-3-(4-piperidin-4-yl-benzoyl) indolizine-7-carboxylic acid diethylamide] | 149.6 °C | –
CCN(Cc1nnn(C)n1)C(=O)c1ccn2c(C(=O)c3ccc(CCCNC(C)(C)C)cc3)c(C)cc2c1 [compound 78, 3-[4-(3-tert-Butylaminopropyl)benzoyl]-2-methylindolizine-7-carboxylic acid ethyl(2-methyl-2H-tetrazol-5-ylmethyl)amide] | 153 °C | –
